{"source": "patent US20130078287A1", "about": "(Horizon Pharma USA, Inc., priority 2010, published 2013)", "key": {"[1]": {"system": "subjects expected to require daily NSAID therapy", "assay": "Integrated REDUCE-1 and REDUCE-2: adverse events"}, "[2]": {"system": "subjects expected to require daily NSAID therapy", "assay": "REDUCE-1 study: adverse events", "source_text": "Randomization was stratified based on aspirin/anticoagulant therapy and prior ulcer history.\nSecondary endpoints were UGI ulcers, duodenal ulcers, and serious GI complications"}, "[3]": {"conditions": "integrated REDUCE-1 and REDUCE-2"}}, "note": "Marks after values point to notes of the source that are not given here.", "data": [{"compound": "CC(C)Cc1ccc(C(C)C(=O)O)cc1", "note": "(stereo not drawn) [Ibuprofen, 2-(p-isobutylphenyl)propionic acid]", "values": [{"measurement": "AEs Leading to Discontinuation, Incidence (%)", "setting": "[1]; [3]", "value": 7.6, "unit": "%"}, {"measurement": "AEs by Relatedness: Possibly Related, Incidence (%)", "setting": "[1]; [3]", "value": 25.0, "unit": "%"}, {"measurement": "AEs by Relatedness: Probably Not Related, Incidence (%)", "setting": "[1]; [3]", "value": 33.7, "unit": "%"}, {"measurement": "AEs by Severity: Life Threatening, Incidence (%)", "setting": "[1]; [3]", "value": 0.4, "unit": "%"}, {"measurement": "AEs by Severity: Moderate, Incidence (%)", "setting": "[1]; [3]", "value": 25.0, "unit": "%"}, {"measurement": "AEs by Severity: Severe, Incidence (%)", "setting": "[1]; [3]", "value": 6.8, "unit": "%"}, {"measurement": "Subjects with at least one AE, Incidence (%)", "setting": "[1]; [3]", "value": 58.7, "unit": "%"}, {"measurement": "TEAE: Abdominal distension", "setting": "[1]; integrated, safety population", "value": "1.4 (7) %"}, {"measurement": "TEAE: Abdominal pain", "setting": "[1]; integrated, safety population", "value": "1.6 (8) %"}, {"measurement": "TEAE: Abdominal pain upper", "setting": "[1]; integrated, safety population", "value": "2.5 (13) %"}, {"measurement": "TEAE: Abdominal tenderness", "setting": "[1]; integrated, safety population", "value": "1.0 (5) %"}, {"measurement": "TEAE: Anaemia", "setting": "[1]; integrated, safety population", "value": "1.4 (7) %"}, {"measurement": "TEAE: Arthralgia", "setting": "[1]; integrated, safety population", "value": "1.8 (9) %"}, {"measurement": "TEAE: Back pain", "setting": "[1]; integrated, safety population", "value": "0.8 (4) %"}, {"measurement": "TEAE: Blood and lymphatic system disorders", "setting": "[1]; integrated, safety population", "value": "1.8 (9) %"}, {"measurement": "TEAE: Bronchitis", "setting": "[1]; integrated, safety population", "value": "1.2 (6) %"}, {"measurement": "TEAE: Constipation", "setting": "[1]; integrated, safety population", "value": "4.1 (21) %"}, {"measurement": "TEAE: Cough", "setting": "[1]; integrated, safety population", "value": "2.0 (10) %"}, {"measurement": "TEAE: Diarrhoea", "setting": "[1]; integrated, safety population", "value": "4.3 (22) %"}, {"measurement": "TEAE: Dizziness", "setting": "[1]; integrated, safety population", "value": "1.4 (7) %"}, {"measurement": "TEAE: Dyspepsia", "setting": "[1]; integrated, safety population", "value": "8.0 (41) %"}, {"measurement": "TEAE: Dyspnoea", "setting": "[1]; integrated, safety population", "value": "1.0 (5) %"}, {"measurement": "TEAE: Fall", "setting": "[1]; integrated, safety population", "value": "1.0 (5) %"}, {"measurement": "TEAE: Fatigue", "setting": "[1]; integrated, safety population", "value": "1.0 (5) %"}, {"measurement": "TEAE: Flatulence", "setting": "[1]; integrated, safety population", "value": "0.4 (2) %"}, {"measurement": "TEAE: Gastritis", "setting": "[1]; integrated, safety population", "value": "1.4 (7) %"}, {"measurement": "TEAE: Gastro-oesophageal reflux disease", "setting": "[1]; integrated, safety population", "value": "3.1 (16) %"}, {"measurement": "TEAE: Gastroenteritis viral", "setting": "[1]; integrated, safety population", "value": "0.8 (4) %"}, {"measurement": "TEAE: Gastrointestinal disorders", "setting": "[1]; integrated, safety population", "value": "28.4 (145) %"}, {"measurement": "TEAE: General disorders and administration site conditions", "setting": "[1]; integrated, safety population", "value": "4.5 (23) %"}, {"measurement": "TEAE: Headache", "setting": "[1]; integrated, safety population", "value": "3.3 (17) %"}, {"measurement": "TEAE: Hypertension", "setting": "[1]; integrated, safety population", "value": "2.2 (11) %"}, {"measurement": "TEAE: Infections and infestations", "setting": "[1]; integrated, safety population", "value": "20.7 (106) %"}, {"measurement": "TEAE: Influenza", "setting": "[1]; integrated, safety population", "value": "1.6 (8) %"}, {"measurement": "TEAE: Injury, poisoning and procedural complications", "setting": "[1]; integrated, safety population", "value": "5.1 (26) %"}, {"measurement": "TEAE: Insomnia", "setting": "[1]; integrated, safety population", "value": "1.0 (5) %"}, {"measurement": "TEAE: Muscle spasms", "setting": "[1]; integrated, safety population", "value": "0.4 (2) %"}, {"measurement": "TEAE: Musculoskeletal and connective tissue disorders", "setting": "[1]; integrated, safety population", "value": "6.8 (35) %"}, {"measurement": "TEAE: Musculoskeletal pain", "setting": "[1]; integrated, safety population", "value": "0.8 (4) %"}, {"measurement": "TEAE: Nasopharyngitis", "setting": "[1]; integrated, safety population", "value": "2.7 (14) %"}, {"measurement": "TEAE: Nausea", "setting": "[1]; integrated, safety population", "value": "4.7 (24) %"}, {"measurement": "TEAE: Nervous system disorders", "setting": "[1]; integrated, safety population", "value": "6.1 (31) %"}, {"measurement": "TEAE: Oedema peripheral", "setting": "[1]; integrated, safety population", "value": "1.8 (9) %"}, {"measurement": "TEAE: Pain in extremity", "setting": "[1]; integrated, safety population", "value": "0.8 (4) %"}, {"measurement": "TEAE: Pharyngolaryngeal pain", "setting": "[1]; integrated, safety population", "value": "1.2 (6) %"}, {"measurement": "TEAE: Psychiatric disorders", "setting": "[1]; integrated, safety population", "value": "3.1 (16) %"}, {"measurement": "TEAE: Rash", "setting": "[1]; integrated, safety population", "value": "1.0 (5) %"}, {"measurement": "TEAE: Respiratory, thoracic and mediastinal disorders", "setting": "[1]; integrated, safety population", "value": "7.0 (36) %"}, {"measurement": "TEAE: Sinus congestion", "setting": "[1]; integrated, safety population", "value": "1.4 (7) %"}, {"measurement": "TEAE: Sinusitis", "setting": "[1]; integrated, safety population", "value": "2.7 (14) %"}, {"measurement": "TEAE: Skin and subcutaneous tissue disorders", "setting": "[1]; integrated, safety population", "value": "3.5 (18) %"}, {"measurement": "TEAE: Stomach discomfort", "setting": "[1]; integrated, safety population", "value": "1.6 (8) %"}, {"measurement": "TEAE: Upper respiratory tract infection", "setting": "[1]; integrated, safety population", "value": "4.1 (21) %"}, {"measurement": "TEAE: Urinary tract infection", "setting": "[1]; integrated, safety population", "value": "2.3 (12) %"}, {"measurement": "TEAE: Vascular disorders", "setting": "[1]; integrated, safety population", "value": "2.7 (14) %"}, {"measurement": "TEAE: Vomiting", "setting": "[1]; integrated, safety population", "value": "1.8 (9) %"}, {"measurement": "Total Subjects With at Least One TEAE", "setting": "[1]; integrated, safety population", "value": "58.7 (300) %"}, {"measurement": "AEs Leading to Discontinuation, Incidence (%)", "setting": "[2]", "value": 7.7, "unit": "%"}, {"measurement": "AEs by Relatedness: Possibly Related, Incidence (%)", "setting": "[2]", "value": 23.1, "unit": "%"}, {"measurement": "AEs by Relatedness: Probably Not Related, Incidence (%)", "setting": "[2]", "value": 38.1, "unit": "%"}, {"measurement": "AEs by Severity: Life Threatening, Incidence (%)", "setting": "[2]", "value": 0.7, "unit": "%"}, {"measurement": "AEs by Severity: Moderate, Incidence (%)", "setting": "[2]", "value": 27.1, "unit": "%"}, {"measurement": "AEs by Severity: Severe, Incidence (%)", "setting": "[2]", "value": 7.0, "unit": "%"}, {"measurement": "Abdominal Pain Upper, Incidence (%)", "setting": "[2]", "value": 4.0, "unit": "%"}, {"measurement": "Any GI Event, Incidence (%)", "setting": "[2]", "value": "27.4* %"}, {"measurement": "Cardiac Disorders, Incidence (%)", "setting": "[2]", "value": 1.3, "unit": "%"}, {"measurement": "Constipation, Incidence (%)", "setting": "[2]", "value": 4.3, "unit": "%"}, {"measurement": "Deaths, Incidence %", "setting": "[2]", "value": "1/0.1%"}, {"measurement": "Diarrhea, Incidence (%)", "setting": "[2]", "value": 4.3, "unit": "%"}, {"measurement": "Dyspepsia, Incidence (%)", "setting": "[2]", "value": 7.7, "unit": "%"}, {"measurement": "General Disorders/Administrative Site Conditions, Incidence (%)", "setting": "[2]", "value": 7.7, "unit": "%"}, {"measurement": "Hepatobiliary Disorders, Incidence (%)", "setting": "[2]", "value": 0.0, "unit": "%"}, {"measurement": "Hypertension, Incidence (%)", "setting": "[2]", "value": 2.3, "unit": "%"}, {"measurement": "Injury, Poisoning, Procedural Complications, Incidence (%)", "setting": "[2]", "value": 6.0, "unit": "%"}, {"measurement": "Investigations, Incidence (%)", "setting": "[2]", "value": 5.0, "unit": "%"}, {"measurement": "Musculoskeletal/connective Tissue Disorders, Incidence (%)", "setting": "[2]", "value": 8.0, "unit": "%"}, {"measurement": "Nausea, Incidence (%)", "setting": "[2]", "value": 4.3, "unit": "%"}, {"measurement": "Nervous System Disorders, Incidence (%)", "setting": "[2]", "value": 7.0, "unit": "%"}, {"measurement": "Renal and Urinary Disorders, Incidence (%)", "setting": "[2]", "value": 1.0, "unit": "%"}, {"measurement": "Respiratory, Thoracic and Mediastinal Disorders, Incidence (%)", "setting": "[2]", "value": 8.7, "unit": "%"}, {"measurement": "SAEs leading to discontinuation, Incidence %", "setting": "[2]", "value": "2/0.7%"}, {"measurement": "Subjects with at least one AE, Incidence (%)", "setting": "[2]", "value": 61.2, "unit": "%"}, {"measurement": "Total SAEs, Incidence %", "setting": "[2]", "value": "13/4.3%"}, {"measurement": "Withdrawals due to GI, Incidence (%)", "setting": "[2]", "value": 5.0, "unit": "%"}]}]}
